# ChEMBL document CHEMBL5465560, “Selectivity Literature for EUbOPEN Chemogenomic Library” (2024)
# Experiments:
# [1] = target: Fibroblast growth factor receptor 2 (Homo sapiens) (UniProt P21802); assay: Selectivity interaction (KinomeScan (DiscoverX)) EUB0000045b FGFR2
# [2] = target: T1, Serine/threonine-protein kinase ULK3 (Homo sapiens) (UniProt Q6PHR2); assay: Selectivity interaction (KinomeScan (DiscoverX)) EUB0000045b ULK3
# T1 sequence (whole entry): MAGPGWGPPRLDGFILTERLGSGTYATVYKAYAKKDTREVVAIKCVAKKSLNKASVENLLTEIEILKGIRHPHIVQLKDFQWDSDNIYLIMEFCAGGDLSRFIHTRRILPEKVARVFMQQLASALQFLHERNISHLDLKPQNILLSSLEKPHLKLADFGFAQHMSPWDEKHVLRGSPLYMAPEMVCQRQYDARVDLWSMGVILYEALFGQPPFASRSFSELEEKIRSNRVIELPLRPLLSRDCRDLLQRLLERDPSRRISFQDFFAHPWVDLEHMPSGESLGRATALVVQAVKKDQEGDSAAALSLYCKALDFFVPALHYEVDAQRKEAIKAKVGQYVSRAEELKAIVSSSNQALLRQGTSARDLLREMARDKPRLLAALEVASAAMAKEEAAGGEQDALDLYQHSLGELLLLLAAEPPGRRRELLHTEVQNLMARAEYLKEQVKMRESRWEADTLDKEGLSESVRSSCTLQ
# [3] = target: Receptor tyrosine-protein kinase erbB-4 (Homo sapiens, UniProt Q15303); assay: Selectivity interaction (KinomeScan (DiscoverX)) EUB0001079a ERBB4; settings: at 1 µM
# [4] = tested on: Proto-oncogene tyrosine-protein kinase receptor Ret (Homo sapiens), P07949 [V804M]; settings: at 10 µM
# [5] = target: Histone-lysine N-methyltransferase SUV39H2 (Homo sapiens) (UniProt Q9H5I1); assay: Selectivity interaction (Methyltransferase screen (radiometric assays, panel of 8 PRMTs, 21 protein lysine methyltransferases, 3 DNA methyltransferases, and one RNA methyltransferase)) EUB0000271b SUV39H2
# [6] = target: Glutamate receptor ionotropic, NMDA 1 (Homo sapiens) (UniProt Q05586); assay: Selectivity interaction (Eurofins CEREP Diversity Profile (receptors and ion channels)) EUB0000279b GRIN1; settings: at 10 µM
# [7] = target: [Pyruvate dehydrogenase (acetyl-transferring)] kinase isozyme 1, mitochondrial (Homo sapiens, UniProt Q15118); assay: Selectivity interaction (Millipore kinase profiler) EUB0000124b PDK1; settings: at 10 µM
# [8] = target: CDK2/Cyclin A2 (Homo sapiens) (UniProt P24941+P20248); assay: (§1) Selectivity interaction (ProQinase) EUB0000171b CDK2; type: protein-complex assay
# [9] = target: Cyclin-dependent kinase 2/cyclin E1 (Homo sapiens) (UniProt P24864+P24941); assay: as §1; type: protein-complex assay
# [10] = target: CDK6/cyclin D3 (Homo sapiens) (UniProt P30281+Q00534); assay: (§2) Selectivity interaction (ProQinase) EUB0000171b CDK6; type: protein-complex assay
# [11] = target: CDK6/cyclin D1 (Homo sapiens) (UniProt P24385+Q00534); assay: as §2; type: protein-complex assay
# [12] = target: T2, Mitogen-activated protein kinase kinase kinase 2 (Homo sapiens) (UniProt Q9Y2U5); assay: Selectivity interaction (ActivX KiNativ screen (ex vivo kinase selectivity in human PBMCs)) EUB0001619a MAP3K2; type: cell-based; settings: PBMC, at 1 µM
# T2 sequence (whole entry): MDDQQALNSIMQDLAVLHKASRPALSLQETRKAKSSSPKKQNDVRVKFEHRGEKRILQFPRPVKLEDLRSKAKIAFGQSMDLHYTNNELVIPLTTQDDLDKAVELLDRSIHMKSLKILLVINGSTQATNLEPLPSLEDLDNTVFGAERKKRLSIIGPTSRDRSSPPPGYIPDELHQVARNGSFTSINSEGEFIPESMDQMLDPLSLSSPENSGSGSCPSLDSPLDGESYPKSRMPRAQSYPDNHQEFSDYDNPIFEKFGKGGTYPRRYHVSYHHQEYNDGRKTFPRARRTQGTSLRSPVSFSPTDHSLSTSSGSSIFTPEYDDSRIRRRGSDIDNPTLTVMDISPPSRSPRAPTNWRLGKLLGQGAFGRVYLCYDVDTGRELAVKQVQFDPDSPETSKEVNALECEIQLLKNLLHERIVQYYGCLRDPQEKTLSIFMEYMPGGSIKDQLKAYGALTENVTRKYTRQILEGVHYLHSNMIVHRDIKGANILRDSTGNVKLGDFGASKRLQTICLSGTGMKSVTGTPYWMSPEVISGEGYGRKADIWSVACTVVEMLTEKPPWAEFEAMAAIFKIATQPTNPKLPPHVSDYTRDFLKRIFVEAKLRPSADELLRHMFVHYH
# [13] = target: Serine/threonine-protein kinase WNK1 (Homo sapiens) (UniProt Q9H4A3); assay: Selectivity interaction (ActivX KiNativ screen (ex vivo kinase selectivity in human PBMCs)) EUB0001619a WNK1; type: cell-based; settings: PBMC, at 1 µM
# [14] = target: Serine/threonine-protein kinase B-raf (Homo sapiens) (UniProt P15056); assay: Selectivity interaction (ActivX KiNativ screen (ex vivo kinase selectivity in human PBMCs)) EUB0001619a BRAF; type: cell-based; settings: PBMC, at 1 µM
# [15] = target: Tyrosine-protein kinase Srms (Homo sapiens) (UniProt Q9H3Y6); assay: Selectivity interaction (KinomeScan (DiscoverX)) EUB0001619a SRMS; settings: at 1 µM
# [16] = target: High affinity nerve growth factor receptor (Homo sapiens, UniProt P04629); assay: Selectivity interaction (Kinase panel (literature)) EUB0001199aCl NTRK1; settings: at 1 µM
# [17] = target: Calcium/calmodulin-dependent protein kinase type 1 (Homo sapiens) (UniProt Q14012); assay: Selectivity interaction (Kinase panel (literature)) EUB0001199aCl CAMK1; settings: at 1 µM
# [18] = target: Tyrosine-protein kinase Blk (Homo sapiens) (UniProt P51451); assay: Selectivity interaction (KinomeScan (DiscoverX)) EUB0000618a BLK; settings: at 10 µM
# [19] = target: eIF-2-alpha kinase GCN2 (Homo sapiens) (UniProt Q9P2K8); assay: Selectivity interaction (ActivX KiNativ screen (kinase selectivity in THP-1 cell lysates)) EUB0000639a EIF2AK4; type: subcellular; settings: lysate, at 1 µM
# [20] = target: MAP/microtubule affinity-regulating kinase 3 (Homo sapiens) (UniProt P27448); assay: Selectivity interaction (ActivX KiNativ screen (kinase selectivity in THP-1 cell lysates)) EUB0000639a MARK3; type: subcellular; settings: lysate
# [21] = target: Bone morphogenetic protein receptor type-1B (Homo sapiens, UniProt O00238); assay: Selectivity interaction (Ambit KINOMEscan and KiNATiv profiling in Jurkat cells) EUB0000090b BMPR1B; type: cell-based; settings: at 1 µM
# [22] = target: Cyclin-dependent kinase 15 (Homo sapiens) (UniProt Q96Q40); assay: Selectivity interaction (Ambit KINOMEscan and KiNATiv profiling in Jurkat cells) EUB0000090b CDK15; type: cell-based; settings: at 1 µM
# MAP/microtubule affinity-regulating kinase 3 (Homo sapiens), sequence (P27448 whole entry, looked up): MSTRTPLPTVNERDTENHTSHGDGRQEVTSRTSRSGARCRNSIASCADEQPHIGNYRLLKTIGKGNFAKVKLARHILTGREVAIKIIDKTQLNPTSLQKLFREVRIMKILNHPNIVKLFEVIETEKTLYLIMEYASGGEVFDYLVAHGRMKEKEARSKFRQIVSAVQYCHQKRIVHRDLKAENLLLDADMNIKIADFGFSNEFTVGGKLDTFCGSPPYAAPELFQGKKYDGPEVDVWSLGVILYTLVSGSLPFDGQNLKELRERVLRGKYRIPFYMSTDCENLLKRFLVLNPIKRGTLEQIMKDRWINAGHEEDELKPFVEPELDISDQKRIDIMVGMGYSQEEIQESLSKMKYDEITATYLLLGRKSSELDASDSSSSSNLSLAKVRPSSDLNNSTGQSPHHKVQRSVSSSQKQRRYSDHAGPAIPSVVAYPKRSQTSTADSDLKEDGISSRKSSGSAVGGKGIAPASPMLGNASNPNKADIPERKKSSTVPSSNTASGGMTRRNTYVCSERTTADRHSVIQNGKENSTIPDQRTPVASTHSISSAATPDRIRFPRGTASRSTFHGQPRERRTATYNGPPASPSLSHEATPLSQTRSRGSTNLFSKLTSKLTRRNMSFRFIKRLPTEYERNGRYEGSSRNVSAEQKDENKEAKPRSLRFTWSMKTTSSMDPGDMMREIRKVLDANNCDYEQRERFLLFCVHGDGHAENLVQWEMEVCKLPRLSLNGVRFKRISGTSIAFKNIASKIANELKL
# Histone-lysine N-methyltransferase SUV39H2 (Homo sapiens), sequence (Q9H5I1 whole entry): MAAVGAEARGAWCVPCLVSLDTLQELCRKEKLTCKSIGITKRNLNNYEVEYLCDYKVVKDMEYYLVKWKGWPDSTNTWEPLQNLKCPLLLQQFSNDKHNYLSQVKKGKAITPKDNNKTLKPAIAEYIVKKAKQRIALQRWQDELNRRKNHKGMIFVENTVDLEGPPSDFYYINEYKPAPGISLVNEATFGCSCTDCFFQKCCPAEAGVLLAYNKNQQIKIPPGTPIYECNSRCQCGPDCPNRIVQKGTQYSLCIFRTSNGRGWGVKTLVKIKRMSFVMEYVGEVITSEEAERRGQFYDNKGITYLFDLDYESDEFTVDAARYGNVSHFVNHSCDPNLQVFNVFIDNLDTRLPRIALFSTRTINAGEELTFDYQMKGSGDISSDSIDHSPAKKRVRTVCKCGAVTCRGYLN
# Fibroblast growth factor receptor 2 (Homo sapiens), sequence (P21802 22-821 limits assumed): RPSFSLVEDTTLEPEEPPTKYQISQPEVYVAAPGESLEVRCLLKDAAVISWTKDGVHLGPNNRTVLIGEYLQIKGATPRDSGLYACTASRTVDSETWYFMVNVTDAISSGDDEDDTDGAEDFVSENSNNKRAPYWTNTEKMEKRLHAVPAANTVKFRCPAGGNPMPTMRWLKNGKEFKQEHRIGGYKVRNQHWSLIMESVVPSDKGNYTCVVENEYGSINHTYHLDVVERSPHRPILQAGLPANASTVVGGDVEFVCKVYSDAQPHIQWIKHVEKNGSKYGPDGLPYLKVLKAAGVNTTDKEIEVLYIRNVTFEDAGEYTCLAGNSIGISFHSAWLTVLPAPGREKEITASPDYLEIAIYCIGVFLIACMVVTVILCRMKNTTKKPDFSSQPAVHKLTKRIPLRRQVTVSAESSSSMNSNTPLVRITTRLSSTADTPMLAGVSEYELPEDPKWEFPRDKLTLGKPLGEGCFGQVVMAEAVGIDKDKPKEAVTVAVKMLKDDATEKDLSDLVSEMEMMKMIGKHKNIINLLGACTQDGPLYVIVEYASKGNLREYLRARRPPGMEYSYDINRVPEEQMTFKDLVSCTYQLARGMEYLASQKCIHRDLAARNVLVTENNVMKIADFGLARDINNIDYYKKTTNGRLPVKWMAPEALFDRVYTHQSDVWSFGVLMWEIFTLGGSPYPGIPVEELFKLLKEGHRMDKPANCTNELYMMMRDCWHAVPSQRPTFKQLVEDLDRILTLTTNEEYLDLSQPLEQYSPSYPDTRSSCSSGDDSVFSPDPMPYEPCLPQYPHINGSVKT
# Calcium/calmodulin-dependent protein kinase type 1 (Homo sapiens), sequence (Q14012 whole entry, looked up): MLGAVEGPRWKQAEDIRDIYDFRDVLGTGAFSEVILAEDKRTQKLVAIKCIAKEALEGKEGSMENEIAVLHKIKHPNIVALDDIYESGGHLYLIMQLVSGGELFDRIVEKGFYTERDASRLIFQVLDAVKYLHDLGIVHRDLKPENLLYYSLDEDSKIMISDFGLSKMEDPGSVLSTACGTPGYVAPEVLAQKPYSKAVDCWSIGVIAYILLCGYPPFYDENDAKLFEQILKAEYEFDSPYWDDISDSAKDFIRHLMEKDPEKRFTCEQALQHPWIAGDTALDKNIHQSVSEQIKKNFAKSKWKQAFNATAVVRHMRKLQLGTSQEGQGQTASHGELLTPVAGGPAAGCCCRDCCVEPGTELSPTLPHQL
# Tyrosine-protein kinase Blk (Homo sapiens), sequence (P51451 2-505 limits assumed): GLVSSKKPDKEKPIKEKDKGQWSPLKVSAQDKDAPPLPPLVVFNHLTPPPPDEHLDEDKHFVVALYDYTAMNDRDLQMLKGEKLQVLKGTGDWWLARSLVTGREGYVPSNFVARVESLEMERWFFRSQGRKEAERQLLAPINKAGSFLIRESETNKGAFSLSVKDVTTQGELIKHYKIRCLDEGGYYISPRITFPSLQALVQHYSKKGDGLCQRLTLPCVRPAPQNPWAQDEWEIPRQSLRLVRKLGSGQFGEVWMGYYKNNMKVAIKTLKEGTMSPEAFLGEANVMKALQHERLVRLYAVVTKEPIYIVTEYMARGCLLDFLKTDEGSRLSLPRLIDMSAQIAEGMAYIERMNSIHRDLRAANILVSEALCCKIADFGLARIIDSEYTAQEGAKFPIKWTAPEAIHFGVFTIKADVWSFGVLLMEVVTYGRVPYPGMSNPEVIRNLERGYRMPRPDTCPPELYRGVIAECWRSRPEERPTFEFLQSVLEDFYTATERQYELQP
# eIF-2-alpha kinase GCN2 (Homo sapiens), sequence (Q9P2K8 whole entry): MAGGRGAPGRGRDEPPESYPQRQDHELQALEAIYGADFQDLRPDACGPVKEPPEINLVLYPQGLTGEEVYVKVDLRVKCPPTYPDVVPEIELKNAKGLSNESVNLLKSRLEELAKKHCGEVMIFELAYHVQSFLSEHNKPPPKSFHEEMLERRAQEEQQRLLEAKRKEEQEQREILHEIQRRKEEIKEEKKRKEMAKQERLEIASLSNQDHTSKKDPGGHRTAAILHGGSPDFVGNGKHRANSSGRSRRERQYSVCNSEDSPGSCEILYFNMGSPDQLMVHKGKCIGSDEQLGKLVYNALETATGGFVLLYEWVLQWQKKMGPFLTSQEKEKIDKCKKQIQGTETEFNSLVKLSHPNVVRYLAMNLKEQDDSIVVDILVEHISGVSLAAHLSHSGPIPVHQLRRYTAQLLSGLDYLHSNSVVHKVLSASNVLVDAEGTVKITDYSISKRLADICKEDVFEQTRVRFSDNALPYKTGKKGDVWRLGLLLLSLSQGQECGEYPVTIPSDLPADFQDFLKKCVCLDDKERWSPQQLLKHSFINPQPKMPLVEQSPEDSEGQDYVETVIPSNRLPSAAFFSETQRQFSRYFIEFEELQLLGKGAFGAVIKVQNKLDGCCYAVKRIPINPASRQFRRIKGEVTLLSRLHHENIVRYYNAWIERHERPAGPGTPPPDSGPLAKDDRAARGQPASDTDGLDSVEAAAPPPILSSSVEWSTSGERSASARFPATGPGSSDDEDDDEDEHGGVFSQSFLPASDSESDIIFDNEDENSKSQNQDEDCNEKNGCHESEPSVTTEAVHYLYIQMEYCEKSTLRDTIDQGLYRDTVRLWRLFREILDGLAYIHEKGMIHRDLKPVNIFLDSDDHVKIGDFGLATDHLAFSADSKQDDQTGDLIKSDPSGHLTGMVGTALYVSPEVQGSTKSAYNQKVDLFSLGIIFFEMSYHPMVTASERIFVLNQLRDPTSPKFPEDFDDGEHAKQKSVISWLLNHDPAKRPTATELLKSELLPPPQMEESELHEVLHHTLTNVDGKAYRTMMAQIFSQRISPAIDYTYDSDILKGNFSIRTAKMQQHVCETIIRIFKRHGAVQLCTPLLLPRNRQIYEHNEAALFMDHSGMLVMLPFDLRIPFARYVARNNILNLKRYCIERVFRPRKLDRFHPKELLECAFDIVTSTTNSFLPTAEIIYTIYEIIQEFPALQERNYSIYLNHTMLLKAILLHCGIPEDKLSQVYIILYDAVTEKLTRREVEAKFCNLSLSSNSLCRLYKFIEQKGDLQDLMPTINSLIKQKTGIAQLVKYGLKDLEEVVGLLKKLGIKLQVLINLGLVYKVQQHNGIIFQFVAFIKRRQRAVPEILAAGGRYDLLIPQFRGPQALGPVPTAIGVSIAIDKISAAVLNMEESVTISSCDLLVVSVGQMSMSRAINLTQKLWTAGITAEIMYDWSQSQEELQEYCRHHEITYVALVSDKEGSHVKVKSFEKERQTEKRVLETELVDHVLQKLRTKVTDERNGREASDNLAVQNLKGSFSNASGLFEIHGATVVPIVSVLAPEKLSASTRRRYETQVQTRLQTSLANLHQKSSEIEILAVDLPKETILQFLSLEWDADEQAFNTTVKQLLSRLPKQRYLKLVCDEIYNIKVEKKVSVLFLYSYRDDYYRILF
# Bone morphogenetic protein receptor type-1B, sequence (O00238 whole entry): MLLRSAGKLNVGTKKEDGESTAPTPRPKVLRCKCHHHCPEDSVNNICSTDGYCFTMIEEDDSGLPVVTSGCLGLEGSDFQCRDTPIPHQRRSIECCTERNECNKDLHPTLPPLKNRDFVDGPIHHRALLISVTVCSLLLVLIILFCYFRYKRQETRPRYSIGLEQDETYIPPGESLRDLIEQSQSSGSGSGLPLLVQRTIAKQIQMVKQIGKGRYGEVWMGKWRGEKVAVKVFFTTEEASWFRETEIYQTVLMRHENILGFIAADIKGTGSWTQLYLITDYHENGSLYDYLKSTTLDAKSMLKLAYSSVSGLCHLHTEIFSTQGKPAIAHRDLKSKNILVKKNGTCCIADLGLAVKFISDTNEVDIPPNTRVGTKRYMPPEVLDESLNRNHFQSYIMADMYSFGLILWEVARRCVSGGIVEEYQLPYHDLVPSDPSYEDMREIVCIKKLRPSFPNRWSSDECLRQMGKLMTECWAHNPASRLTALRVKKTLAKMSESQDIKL
structure (smiles),measurement,setting,value
C=CC(=O)Nc1cc(-n2c(=O)ccc3cnc4ccc(-c5ccc(NS(C)(=O)=O)cc5)cc4c32)ccc1C,% of control,[1]; at 1 µM,96%
same,% of control,[1]; at 10 µM,92%
same,% of control,[2]; at 1 µM,80%
same,% of control,[2]; at 10 µM,100%
Nc1cnc(N2CCc3cc(S(=O)(=O)Nc4c(F)cc(Cl)cc4F)cc(N4CCCC4=O)c32)nc1 [TP-020n],% of control,[3],100%
Cc1cc([C@@H](C)Nc2ccccc2C(=O)O)c2nc(N3CCOCC3)cc(=O)n2c1 [AZD-6482],% of control,[4],100%
Cc1cc(C)cc([C@@H]2c3cc(C)ccc3NC(=O)CN2C(=O)c2ccc(Br)s2)c1,% of activity,[5]; at 1 µM,99.3%
same,% of activity,[5]; at 10 µM,98.3%
CC(=O)c1cc(-c2ccccc2OCC2CC2)c2ncccn12,% of control,[6],106%
CC(=O)Nc1cccc(-n2c(=O)n(C3CC3)c(=O)c3c(Nc4ccc(I)cc4F)n(C)c(=O)c(C)c32)c1,% of control,[7],107%
C=CC(=O)Nc1cccc(C(=O)Nc2ccc(Nc3cc(-c4[nH]c(SC)nc4C)ccn3)cc2)c1,% of control,[8]; at 1 µM,78%
same,% of control,[8]; at 5 µM,56%
same,% of control,[9]; at 1 µM,88%
same,% of control,[9]; at 5 µM,62%
same,% of control,[10]; at 1 µM,93%
same,% of control,[10]; at 5 µM,86%
same,% of control,[11]; at 1 µM,91%
same,% of control,[11]; at 5 µM,87%
N#Cc1cccc(-c2c[nH]c3ncnc(N4CCOCC4)c23)c1,% of inhibition,[12],22%
same,% of inhibition,[13],-1%
same,% of inhibition,[14],-1%
same,% of control,[15],94%
CN1Cc2nccc(-c3cn(C)nc3-c3ccc(F)cc3)c2C1=O,% of inhibition,[16],12%
same,% of inhibition,[17],-9%
O[C@H]1CC[C@H](Nc2ncc3nc(Nc4c(F)cc(F)cc4F)n([C@H]4CCOC4)c3n2)CC1,% of control,[18],98%
CC[C@@H]1[C@H](F)C(=O)N[C@@H]1COc1nccc2cc(C(N)=O)c(OC)cc12 [ZIMLOVISERTIB],% of inhibition,[19],3.6%
same,% of inhibition,[20]; at 0.01 µM,10%
same,% of inhibition,[20]; at 0.04 µM,17.3%
same,% of inhibition,[20]; at 0.2 µM,11.9%
same,% of inhibition,[20]; at 1 µM,26.3%
same,% of inhibition,[20]; at 5 µM,51.4%
CN(C)C/C=C/C(=O)Nc1ccc(C(=O)N2CCCC(Nc3ncc(Cl)c(-c4c[nH]c5ccccc45)n3)C2)cc1 (stereo not drawn),% of control,[21],91%
same,% of control,[22],73%
